From US8039456B2, “Method of stimulating the motility of the gastrointestinal system using ipamorelin” (Helsinn Therapeutics (U.S.), Inc., priority 2004, dated 2011)
Where two headings read alike, the source gives them in different places. Square brackets hold non-standard residues; d marks the D form. Ends that are not written are not given here. Peptide text beside a SMILES is read from it. d2Nal = N[C@H](Cc1ccc2ccccc2c1)C(=O)O; Aib = CC(C)(N)C(=O)O

What was measured:
[1] = system: rat model of post-operative ileus; test: Gastric emptying (phenol red) after i.v. injection, ipamorelin compared to RC-1139, rat model of post-operative ileus (Example 5); type: in vivo; settings: 10 mg/kg i.v.; for lethality: n = 2
Method: Ipamorelin was evaluated in a rat model of post-operative ileus in comparison to RC-1139, a ghrelin mimetic with known gastrokinetic efficacy. Treatment groups were as follows.
All animals were examined twice daily for mortality and signs of ill health or reaction to treatment (except on the day of arrival and necropsy when the animals were examined once). Individual body weights were measured at randomization and on the day prior to dosing (for dose calculation purposes only).
All treatment procedures were replicated over two consecutive days with approximately equal numbers of animals from each group treated on each day. Food was withdrawn from animals overnight prior to surgery. On the day of surgery animals were anesthetized with isoflurane gas and a bland ophthalmic lubricant was applied to each eye. The animals were prepared for surgery by shaving of the entire abdominal region. The shaved area was cleaned and disinfected appropriately prior to incision. Using a scalpel blade, the abdomen was opened and the cecum localized. The cecum was exteriorized and manipulated for approximately one minute (i.e. gently patted between hands in saline-soaked gauze). Thereafter, the cecum was repositioned and the surgical site closed using absorbable suture material (interrupted sutures) and staples. Animals were then returned to their home cage to permit recovery from the anesthesia.
Animals were dosed immediately following the oral gavage dose of phenol red. The test/control articles and reference article were administered by intravenous injection (given as a slow bolus injection over a period of ca. 100 seconds) into the tail vein using a syringe and appropriate gauge needle. The dose volume was 5 mL/kg and the actual dose administered was based on the most recent body weight of each animal.
Prior to dosing of the phenol red, the animals were water deprived. At approximately 30 minutes post-surgery, animals received 0.4 mL of phenol red by oral gavage, then dosed with the test article, and then, approximately 30 minutes later, were euthanized. […]

Half-life in humans = type: in vivo
[2] = Johansen et al. 1998; cited from earlier work
[3] = Prior Phase 1 studies, safety and tolerability; type: in vivo, humans; settings: 0.06 mg/kg IV infused over 15 minutes
Method: Ipamorelin was formulated as a 0.5 mg/mL sterile solution with 2 equivalents of acetic acid in normal saline. The sterile solution was further diluted with normal saline to an appropriate volume for administration prior to use.

[4] = system: gastrointestinal motility in rats; test: Gastrointestinal motility in rats by charcoal transit, 0.25 mg/kg i.v. (Example 8); type: in vivo, rat; settings: for reduction of the amount of charcoal remaining in the stomach relative to the control group: 0.25 mg/kg i.v.
Method: The objective of this study was to evaluate the pharmacological effects of a series of ghrelin mimetics on gastrointestinal motility in rats, as measured by charcoal transit, relative to a commonly used prokinetic agent, metoclopramide, and control, following a single intravenous infusion of the experimental agent. Each dosing formulation was prepared on the day of dosing. […] The reference article formulations were also prepared on the day of dosing by mixing the appropriate amount of reference article with the appropriate volume of vehicle to achieve the desired final concentration. The saline and metoclopramide (1 mg/mL) were used as supplied. Dosing was performed on consecutive days with approximately equal numbers of animals being dosed on each day. The animals were deprived of food overnight prior to treatment. Each formulation was administered by intravenous injection into the tail vein using a syringe and appropriate gauge needle. The dose volume was 5 mL/kg or 10 mL/kg (in the case of metoclopramide only). […] Following the observation period the rats were euthanized, the abdominal cavity opened, and the stomach and intestines removed. The presence or absence of charcoal was documented. The stomachs were weighed (with or without contents) to give an indication of gastric emptying. The intestines were opened and extended to their full length. The charcoal was located and the distances from the pyloric sphincter to the most proximal and distal traces of charcoal were measured as was the total distance from the pyloric sphincter to the cecum. Also, the distance traveled by the charcoal as a percentage of the total length of the small intestine was measured.

[5] = system: morphine-induced gastric ileus in rats; test: Morphine-induced gastric ileus in rats, phenol red gastric emptying (Example 4); type: in vivo, rat
Method: Treatment groups were set up as follows.
The dose volume was 0.1 mL/kg for Groups 2 and 3 and 0.4 mL/kg for Groups 4 and 5. The actual dose administered was based on the most recent practical body weight of each animal.
Approximately 30 minutes following administration of control or test article, the rats were euthanized. The stomach was then exposed by laparotomy, quickly ligated at the pylorus and the cardia and removed. The stomach was cut open and its contents extracted with 100 mL of 0.1N NaOH. The phenol red content of this extract was assayed […] at 558 nm in a spectrophotometer. Following collection, samples were stored on wet ice pending transfer for analysis.

[6] = cited from earlier work
[7] = system: gastrointestinal motility in rats; test: Gastrointestinal motility in rats by charcoal transit, equimolar i.v. dose (Example 9); type: in vivo, rat; settings: single intravenous dose of 75 μmoles/kg
From the text: The objective of this study was to evaluate the pharmacological effects of a series of ghrelin mimetics on gastrointestinal motility in rats, as measured by charcoal transit, relative to control, following a single intravenous infusion of the experimental agent.
Dosing commenced on consecutive days with approximately equal numbers of animals from each group being dosed on each day. The animals were food deprived overnight prior to treatment. Prior to dosing, the animals were water deprived. The test/reference/positive control articles were administered by intravenous injection into the tail vein using a syringe and appropriate gauge needle. […]
At the end of the observation period, the rats were euthanized and the abdominal cavity was opened and the stomach and intestines were removed. […] The stomachs were weighed (with and without contents) and this was recorded to give an indication of gastric emptying. […] The charcoal was located and the distances from the pyloric sphincter to the most proximal and distal traces of charcoal were measured and recorded, as well as the total distance from the pyloric sphincter to the cecum (all distances were measured in mm). In addition to the stomachs weights (with and without contents) the distance traveled by the charcoal as a percentage of the total length of the small intestine was recorded to give an indication of the gastric emptying. […]

rat model of POI = test: Rat model of POI (running of the bowel), single dose (Example 10, series 1); type: in vivo
From the text: Animals: Adult male Sprague-Dawley rats with indwelling catheters implanted in the right jugular vein were obtained from Charles River (Wilmington, Mass.). The initial body weight of the animals was 250-270 g. The catheters were maintained patent during the acclimation and were used for the dosing of ipamorelin or vehicle. An additional group of control rats, not subjected to surgery and drug or vehicle treatment, were purchased with an indwelling catheter implanted into the proximal colon (1-2 cm from the cecum) used for infusion of a dye marker measuring colonic transit. All rats were single-housed under controlled conditions (25° C., 12 h light/dark cycle) with free access to food and water. An acclimation period of at least one week was allowed prior to the experiments. • Induction of post-operative ileus (POI): POI was induced by a surgical procedure described as “running of the bowel” (Kalff et al., 1998). Specifically, rats were anesthetized with isoflurane (2-3%) inhalation, the abdomen was shaved, disinfected and a midline incision was made to expose the viscera. The small intestine and the cecum were exteriorized and inspected for 5 min using cotton applicators soaked in sterile saline. After completing the inspection, the intestine was covered with gauze soaked in saline and the abdomen remained open for additional 10 min. To study colonic transit, 200 μl of a non-absorbable dye marker (trypan blue in saline) was injected into the proximal colon (1 cm distal to the cecum). The incision was then closed with silk sutures. The whole procedure lasted 25-30 min. Surgeries were always performed at 6:00-8:00 AM and the animals received ipamorelin or vehicle treatment during the light phase of the light/dark cycle. • Measurement of colonic transit time: Prior to the experiments, the rats were fasted for 20-22 h with free access to water. […] Colonic transit time was evaluated as the period between the end of surgery and the appearance of dye in the fecal pellet. […] The cumulative fecal output was evaluated by adding the number of pellets throughout a 48-h post-surgical period. Food intake was recorded at 3-h interval or 12-h intervals according to the experimental design and was normalized as g/100 g body weight. The cumulative food intake was calculated for 48 h post-surgery in both series of experiments. Body weight was measured daily at 8:00-9:00 AM before fasting the animals, on the day of experiment before the surgery and at 24 h and 48 h post-surgery. Changes in body weight are expressed as body weight gain compared to the weight of the fasted animal taken before the surgery. • Test and control articles: The test compound ipamorelin (free base) was converted to the diacetate salt by mixing with 2 molar equivalents of glacial acetic acid. […]

[8] = cited from earlier work; remark: listed apart in the source
[9] = single dose i.v., first 48 h post-surgery
[10] = 50 μg/kg i.v. after 1 mg/kg morphine

## CN(C(=O)/C=C/CC(C)(C)N)[C@H](Cc1ccc(-c2ccccc2)cc1)C(=O)N(C)[C@H](Cc1ccccc1)C(=O)N1CCC(O)CC1 [RC-1139]
[1]
  stomach content of the phenol red marker lower than that of the control group: approximately 16%

## CC(C)(N)C(=O)N[C@@H](Cc1c[nH]cn1)C(=O)N[C@H](Cc1ccc2ccccc2c1)C(=O)N[C@H](Cc1ccccc1)C(=O)N[C@@H](CCCCN)C(N)=O [ipamorelin, α-Methylalanine-L-histidine-D-β-(2-naphthyl)-alanine-D-phenylalanine-L-lysinamide] (H-[Aib]H[d2Nal][dF]K-NH2)
Half-life in humans
  half-life in humans: approximately six
Half-life in humans; human, serum
  half-life: 180 to 390 min
[2]
  half-life in the rat: 30 to 60 min
[3]
  safety and tolerability in prior Phase 1 studies: safe and well-tolerated
[1]
  lethality: Two animals died immediately
[1]; listed as Ipamorelin
  lethality: *Lethality was observed immediately following administration of a 10 mg/kg dose (n = 2) and consequently the dose level was reduced to 0.25 mg/kg for all remaining animals in Group 4

## CCN(CC)CCNC(=O)c1cc(Cl)c(N)cc1OC [metoclopramide]
[4]; 10 mg/kg i.v.
  increase of distal distance traveled by the charcoal meal versus control: 29%
  stomach charcoal content versus control group: not significantly different
[4]; 10 mg/kg i.v., control group 67.3%
  distal distance traveled by the charcoal meal: 86.9%

## CN1CC[C@]23c4c5ccc(O)c4O[C@H]2[C@@H](O)C=C[C@H]3[C@H]1C5 [morphine]
[5]; 1 or 4 mg/kg subcutaneous
  reduction of stomach emptying compared to the control animals: approximately 42%

## GHRP-6
[4]
  reduction of the amount of charcoal remaining in the stomach relative to the control group: 64%
[6]; Bowers et al. 1992
  serum half life: 20 min
[7]
  intestinal transit, proximal distance traveled by the charcoal from the pyloric sphincter: resulted in gastric emptying by one of the two measures
Rat model of POI; [9]
  body weight gain: neither ipamorelin nor GHRP-6 had a significant effect
  fecal pellet output: neither ipamorelin nor GHRP-6 had a significant effect
  food intake: neither ipamorelin nor GHRP-6 had a significant effect
Rat model of POI; single post-surgical dose of 20 μg i.v.
  colonic transit time: significantly decreased

## ghrelin: 28-amino acid peptide that is produced in the stomach; potent prokinetic peptide known to reverse gastric ileus (GSSFLSPEHQRVQQRKESKKPPAKLQPR; ends and bridges not checked; UniProt Q9UBU3 24-51, looked up)
[4]
  reduction of the amount of charcoal remaining in the stomach relative to the control group: 57%
[5]; [10]
  acceleration of stomach emptying compared to animals treated with 1 mg/kg morphine and saline: approximately 37%
  reversal of the ileus induced: approximately 11%
[5]; 50 μg/kg i.v. after 4 mg/kg morphine
  gastric emptying in rats administered 4 mg/kg of morphine: did not accelerate gastric emptying
[5]; 50 μg/kg i.v. after 4 mg/kg morphine, saline group 2.99
  group mean absorbance of phenol red: 3.01
[8]
  half-life in humans: approximately 10 minutes
[6]; biologically active (acylated) form, Akamizu et al. 2004
  serum half-life: 9 to 13 min
[7]
  intestinal transit, proximal distance traveled by the charcoal from the pyloric sphincter: resulted in gastric emptying by one of the two measures
